Assay results: PubChem BioAssay AID2060487 (Molecular Pharmacology Branch, DTP, NCI, 2025)

Tested on: 997537-175-T-J1-PDC complex spheroid viability
Test: Anticancer human tumor 997537-175-T-J1-PDC patient-derived colon adenocarcinoma cell line growth inhibition [GQUAD]
Conditions: for IC50: curve of first compound; for viability, T/C: stronger effect = lower value
Outline: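 Tumor cells were grown as complex spheroids with HUVEC endothelial cells and mesenchymal stem cells as stroma. G-quadruplex stabilizers were combined with targeted agents over half-log dilutions from near the clinical Cmax, or from 10 microM.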

[1] = second compound 0.0316 µM, first compound 0.0316 µM
[2] = second compound 0.0316 µM, first compound 0.1 µM
[3] = second compound 0.0316 µM, first compound 0.316 µM
[4] = second compound 0.0316 µM, first compound 1 µM
[5] = second compound 0.0316 µM, first compound 3.16 µM
[6] = second compound 0.0316 µM, first compound 10 µM
[7] = second compound 0.1 µM, first compound 0.0316 µM
[8] = second compound 0.1 µM, first compound 0.1 µM
[9] = second compound 0.1 µM, first compound 0.316 µM
[10] = second compound 0.1 µM, first compound 1 µM
[11] = second compound 0.1 µM, first compound 3.16 µM
[12] = second compound 0.1 µM, first compound 10 µM
[13] = second compound 0.316 µM, first compound 0.0316 µM
[14] = second compound 0.316 µM, first compound 0.1 µM
[15] = second compound 0.316 µM, first compound 0.316 µM
[16] = second compound 0.316 µM, first compound 1 µM
[17] = second compound 0.316 µM, first compound 3.16 µM
[18] = second compound 0.316 µM, first compound 10 µM
[19] = second compound 1 µM, first compound 0.0316 µM
[20] = second compound 1 µM, first compound 0.1 µM
[21] = second compound 1 µM, first compound 0.316 µM
[22] = second compound 1 µM, first compound 1 µM
[23] = second compound 1 µM, first compound 3.16 µM
[24] = second compound 1 µM, first compound 10 µM
[25] = second compound 3.16 µM, first compound 0.0316 µM
[26] = second compound 3.16 µM, first compound 0.1 µM
[27] = second compound 3.16 µM, first compound 0.316 µM
[28] = second compound 3.16 µM, first compound 1 µM
[29] = second compound 3.16 µM, first compound 3.16 µM
[30] = second compound 3.16 µM, first compound 10 µM
[31] = second compound 10 µM, first compound 0.0316 µM
[32] = second compound 10 µM, first compound 0.1 µM
[33] = second compound 10 µM, first compound 0.316 µM
[34] = second compound 10 µM, first compound 1 µM
[35] = second compound 10 µM, first compound 3.16 µM
[36] = second compound 10 µM, first compound 10 µM
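Further: spheroids exposed to the agents for 7 days.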
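Wherever viability, T/C is given: 100% = DMSO vehicle control viability.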

## C=CCn1c(=O)c2cnc(Nc3ccc(N4CCN(C)CC4)cc3)nc2n1-c1cccc(C(C)(C)O)n1 + CN(C)c1ccc(Nc2c3ccc(NC(=O)CCN4CCCC4)cc3nc3cc(NC(=O)CCN4CCCC4)ccc23)cc1
Second compound 0.0316 µM
  IC50: 2100 nM
Second compound 0.1 µM
  IC50: 2160 nM
Second compound 0.316 µM
  IC50: 6680 nM
Second compound 1 µM
  IC50: 2860 nM
Second compound 3.16 µM
  IC50: 2420 nM
Second compound 10 µM
  IC50: 5060 nM
[1]
  viability, T/C: 104%
[2]
  viability, T/C: 93%
[3]
  viability, T/C: 91.8%
[4]
  viability, T/C: 74.4%
[5]
  viability, T/C: 35.5%
[6]
  viability, T/C: 31.7%
[7]
  viability, T/C: 95.8%
[8]
  viability, T/C: 85.2%
[9]
  viability, T/C: 89.1%
[10]
  viability, T/C: 67.5%
[11]
  viability, T/C: 41.2%
[12]
  viability, T/C: 25.6%
[13]
  viability, T/C: 101%
[14]
  viability, T/C: 73.8%
[15]
  viability, T/C: 86.5%
[16]
  viability, T/C: 71.9%
[17]
  viability, T/C: 84.2%
[18]
  viability, T/C: 31.8%
[19]
  viability, T/C: 83.1%
[20]
  viability, T/C: 72%
[21]
  viability, T/C: 82.1%
[22]
  viability, T/C: 75.8%
[23]
  viability, T/C: 47.5%
[24]
  viability, T/C: 26.4%
[25]
  viability, T/C: 74.3%
[26]
  viability, T/C: 85.9%
[27]
  viability, T/C: 88%
[28]
  viability, T/C: 68.5%
[29]
  viability, T/C: 45.1%
[30]
  viability, T/C: 33.3%
[31]
  viability, T/C: 66.1%
[32]
  viability, T/C: 92.8%
[33]
  viability, T/C: 111%
[34]
  viability, T/C: 74.2%
[35]
  viability, T/C: 58.5%
[36]
  viability, T/C: 39.9%

## CC1COCCN1c1cc(-c2ccnn2C)c2ccnc(-c3ccn[nH]3)c2n1 (stereo unspecified) + Cc1[nH]c2ccc(F)cc2c1-c1nc2c3cccnc3c3ncccc3c2[nH]1
Second compound 0.0316 µM
  IC50: 209 nM
Second compound 0.1 µM
  IC50: 287 nM
Second compound 0.316 µM
  IC50: 288 nM
Second compound 1 µM
  IC50: 376 nM
Second compound 3.16 µM
  IC50: 179 nM
Second compound 10 µM
  IC50: 113 nM
[1]
  viability, T/C: 82.8%
[2]
  viability, T/C: 66.7%
[3]
  viability, T/C: 36.5%
[4]
  viability, T/C: 28.3%
[5]
  viability, T/C: 35%
[6]
  viability, T/C: 62.5%
[7]
  viability, T/C: 86.1%
[8]
  viability, T/C: 64.5%
[9]
  viability, T/C: 57.3%
[10]
  viability, T/C: 24.7%
[11]
  viability, T/C: 37.3%
[12]
  viability, T/C: 46.5%
[13]
  viability, T/C: 76.7%
[14]
  viability, T/C: 58.5%
[15]
  viability, T/C: 57.4%
[16]
  viability, T/C: 32.5%
[17]
  viability, T/C: 36.4%
[18]
  viability, T/C: 46.4%
[19]
  viability, T/C: 60.4%
[20]
  viability, T/C: 56.1%
[21]
  viability, T/C: 51.6%
[22]
  viability, T/C: 21.6%
[23]
  viability, T/C: 42.6%
[24]
  viability, T/C: 57.9%
[25]
  viability, T/C: 54.8%
[26]
  viability, T/C: 70.2%
[27]
  viability, T/C: 29.2%
[28]
  viability, T/C: 40.8%
[29]
  viability, T/C: 33.8%
[30]
  viability, T/C: 47%
[31]
  viability, T/C: 65.8%
[32]
  viability, T/C: 55.3%
[33]
  viability, T/C: 36.4%
[34]
  viability, T/C: 42.5%
[35]
  viability, T/C: 52.3%
[36]
  viability, T/C: 47.9%

## Cc1[nH]c2ccccc2c1CCNCc1ccc(/C=C/C(=O)NO)cc1 + Cc1cnc(CNC(=O)c2c(=O)c3ccc(N4CCCN(C)CC4)nc3n3c2sc2ccccc23)cn1
Second compound 0.0316 µM
  IC50: > 316 nM
Second compound 0.1 µM
  IC50: > 316 nM
Second compound 0.316 µM
  IC50: 232 nM
Second compound 1 µM
  IC50: > 316 nM
Second compound 3.16 µM
  IC50: 226 nM
Second compound 10 µM
  IC50: 281 nM
Second compound 0.0316 µM, first compound 0.000999 µM
  viability, T/C: 87.7%
Second compound 0.0316 µM, first compound 0.00316 µM
  viability, T/C: 99%
Second compound 0.0316 µM, first compound 0.00999 µM
  viability, T/C: 98%
[1]
  viability, T/C: 80.6%
Second compound 0.0316 µM, first compound 0.0999 µM
  viability, T/C: 82.2%
[3]
  viability, T/C: 52.7%
Second compound 0.1 µM, first compound 0.000999 µM
  viability, T/C: 98.3%
Second compound 0.1 µM, first compound 0.00316 µM
  viability, T/C: 94.9%
Second compound 0.1 µM, first compound 0.00999 µM
  viability, T/C: 88.9%
[7]
  viability, T/C: 90.5%
Second compound 0.1 µM, first compound 0.0999 µM
  viability, T/C: 80.2%
[9]
  viability, T/C: 59.5%
Second compound 0.316 µM, first compound 0.000999 µM
  viability, T/C: 105%
Second compound 0.316 µM, first compound 0.00316 µM
  viability, T/C: 90.7%
Second compound 0.316 µM, first compound 0.00999 µM
  viability, T/C: 88.6%
[13]
  viability, T/C: 84.1%
Second compound 0.316 µM, first compound 0.0999 µM
  viability, T/C: 99.9%
[15]
  viability, T/C: 33.9%
Second compound 1 µM, first compound 0.000999 µM
  viability, T/C: 76.1%
Second compound 1 µM, first compound 0.00316 µM
  viability, T/C: 87.6%
Second compound 1 µM, first compound 0.00999 µM
  viability, T/C: 101%
[19]
  viability, T/C: 102%
Second compound 1 µM, first compound 0.0999 µM
  viability, T/C: 81.8%
[21]
  viability, T/C: 53.1%
Second compound 3.16 µM, first compound 0.000999 µM
  viability, T/C: 96%
Second compound 3.16 µM, first compound 0.00316 µM
  viability, T/C: 100%
Second compound 3.16 µM, first compound 0.00999 µM
  viability, T/C: 103%
[25]
  viability, T/C: 81.4%
Second compound 3.16 µM, first compound 0.0999 µM
  viability, T/C: 110%
[27]
  viability, T/C: 30.2%
Second compound 10 µM, first compound 0.000999 µM
  viability, T/C: 99.2%
Second compound 10 µM, first compound 0.00316 µM
  viability, T/C: 108%
Second compound 10 µM, first compound 0.00999 µM
  viability, T/C: 92.8%
[31]
  viability, T/C: 94.4%
Second compound 10 µM, first compound 0.0999 µM
  viability, T/C: 108%
[33]
  viability, T/C: 44.3%
